Experimental data as given in patent publication US20250135006A1, “AMPHIPHILIC TLR7/8 ADJUVANTS AND USES THEREOF” (Pfizer Inc., priority 2023, published 2025).
pEC50: −log10 of the molar value.

Assays:
[1] = biological target: T1, human toll like receptor 7 (hTLR7) (Homo sapiens, UniProt Q9NYK1); assay: hTLR7 in-vitro functional assay (HEK-Blue hTLR7 SEAP reporter); assay type: cell-based; details: HEK-Blue hTLR7 cells, overnight incubation
T1 construct: host or cells: HEK293 (HEK-Blue hTLR7)
T1 sequence (Q9NYK1 27-1049): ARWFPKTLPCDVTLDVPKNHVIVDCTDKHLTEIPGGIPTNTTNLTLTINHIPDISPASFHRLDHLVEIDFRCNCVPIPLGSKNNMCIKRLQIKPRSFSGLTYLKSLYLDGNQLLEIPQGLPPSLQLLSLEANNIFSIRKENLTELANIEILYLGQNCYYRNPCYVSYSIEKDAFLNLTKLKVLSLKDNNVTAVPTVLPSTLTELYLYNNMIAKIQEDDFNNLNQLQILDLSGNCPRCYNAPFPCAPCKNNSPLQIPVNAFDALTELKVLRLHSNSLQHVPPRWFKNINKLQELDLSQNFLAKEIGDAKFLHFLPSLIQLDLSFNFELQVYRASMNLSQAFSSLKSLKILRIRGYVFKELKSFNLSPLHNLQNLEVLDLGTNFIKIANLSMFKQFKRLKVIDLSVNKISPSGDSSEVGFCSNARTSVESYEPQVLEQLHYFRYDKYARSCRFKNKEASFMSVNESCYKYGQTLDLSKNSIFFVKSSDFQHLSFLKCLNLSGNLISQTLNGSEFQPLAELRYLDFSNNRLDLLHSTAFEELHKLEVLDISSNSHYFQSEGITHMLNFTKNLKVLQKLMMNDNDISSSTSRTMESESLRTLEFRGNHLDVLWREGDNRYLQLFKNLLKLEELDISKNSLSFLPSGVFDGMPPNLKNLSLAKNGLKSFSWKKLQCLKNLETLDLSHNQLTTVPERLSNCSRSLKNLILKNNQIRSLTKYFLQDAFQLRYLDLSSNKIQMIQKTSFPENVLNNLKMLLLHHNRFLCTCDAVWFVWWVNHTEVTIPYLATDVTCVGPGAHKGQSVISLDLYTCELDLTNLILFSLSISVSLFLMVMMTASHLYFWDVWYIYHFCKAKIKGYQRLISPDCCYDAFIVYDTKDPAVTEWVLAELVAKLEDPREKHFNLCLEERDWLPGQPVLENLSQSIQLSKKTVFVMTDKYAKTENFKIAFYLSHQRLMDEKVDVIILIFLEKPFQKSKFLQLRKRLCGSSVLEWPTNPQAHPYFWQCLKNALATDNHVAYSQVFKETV
Source text: (§1) To determine the ability of test compounds to activate the human toll like receptor 7 (hTLR7) or human toll like receptor 8 (hTLR8), cell-based reporter systems were utilized. HEK293 cells stably overexpressing either hTLR7 or hTLR8 along with a reporter gene containing an optimized secreted embryonic alkaline phosphatase gene (SEAP), under the control of the IFN-b minimal promoter fused to five NF-kB and AP-1-binding sites, were obtained from Invivogen (HEK-Blue™ hTLR7, cat #Hkb-htlr7; HEK-Blue™ hTLR8, cat #Hkb-htlr8). Stimulation of hTLR7 or hTLR8 in these cells activates NF-kB and AP-1 and induces the production of SEAP which can be quantified using an alkaline phosphatase detection reagent.
(§2) On day one of the assay, compounds were prepared using 11-point half-log serial dilutions from a 10 mM DMSO stock solution and 50 nL was spotted into 384-well plates (PerkinElmer, cat #6007480). Positive and negative controls were also spotted within the assay plate and were used to determine percent effect during the analysis process. After resuspension in DMEM assay media containing FBS heat inactivated (10%), Glutamax (2 mM) and Penicillin/Streptomycin, 10,000 cells/20 ul/well were added to previously prepared compound plates. Plates were incubated overnight (16-20 hrs) at 37° C. in a 5% CO2 environment. Prewetted Microclime lids (Labcyte, LLS-0310) were used to prevent evaporation. On day two of the assay, QUANTI-Blue™ detection reagent was prepared by reconstituting QUANTI-Blue™ powder (InvivoGen, Rep-qb1) with 100 ml of sterile water and allowed to equilibrate to 37° C. for 15 minutes. 20 ul of QUANTI-Blue™ detection reagent was added to each well and plates were incubated at room temperature for 180 min. At the end of the incubation, plates were read on an Envision (Perkin Elmer) plate reader capturing absorbance at 650 nm.
(§3) Using Positive (tool compound) and Negative (DMSO) controls, the percent (%) effect was calculated for each sample using the following equation: […]
(§4) The % effect at each concentration of compound was calculated utilizing the ABase software suite (IBDS) and was relative to the amount of SEAP produced in the positive and negative control wells contained within each assay plate. The concentrations and % effect values for test compounds were fit using a 4-parameter logistic model in ABase and the concentration of compound that produced 50% response (EC50) was calculated.

[2] = biological target: T2, human toll like receptor 8 (hTLR8) (Homo sapiens, UniProt Q9NR97); assay: hTLR8 in-vitro functional assay (HEK-Blue hTLR8 SEAP reporter); assay type: cell-based; details: HEK-Blue hTLR8 cells, overnight incubation
T2 construct: host or cells: HEK293 (HEK-Blue hTLR8)
T2 sequence (Q9NR97 27-1041): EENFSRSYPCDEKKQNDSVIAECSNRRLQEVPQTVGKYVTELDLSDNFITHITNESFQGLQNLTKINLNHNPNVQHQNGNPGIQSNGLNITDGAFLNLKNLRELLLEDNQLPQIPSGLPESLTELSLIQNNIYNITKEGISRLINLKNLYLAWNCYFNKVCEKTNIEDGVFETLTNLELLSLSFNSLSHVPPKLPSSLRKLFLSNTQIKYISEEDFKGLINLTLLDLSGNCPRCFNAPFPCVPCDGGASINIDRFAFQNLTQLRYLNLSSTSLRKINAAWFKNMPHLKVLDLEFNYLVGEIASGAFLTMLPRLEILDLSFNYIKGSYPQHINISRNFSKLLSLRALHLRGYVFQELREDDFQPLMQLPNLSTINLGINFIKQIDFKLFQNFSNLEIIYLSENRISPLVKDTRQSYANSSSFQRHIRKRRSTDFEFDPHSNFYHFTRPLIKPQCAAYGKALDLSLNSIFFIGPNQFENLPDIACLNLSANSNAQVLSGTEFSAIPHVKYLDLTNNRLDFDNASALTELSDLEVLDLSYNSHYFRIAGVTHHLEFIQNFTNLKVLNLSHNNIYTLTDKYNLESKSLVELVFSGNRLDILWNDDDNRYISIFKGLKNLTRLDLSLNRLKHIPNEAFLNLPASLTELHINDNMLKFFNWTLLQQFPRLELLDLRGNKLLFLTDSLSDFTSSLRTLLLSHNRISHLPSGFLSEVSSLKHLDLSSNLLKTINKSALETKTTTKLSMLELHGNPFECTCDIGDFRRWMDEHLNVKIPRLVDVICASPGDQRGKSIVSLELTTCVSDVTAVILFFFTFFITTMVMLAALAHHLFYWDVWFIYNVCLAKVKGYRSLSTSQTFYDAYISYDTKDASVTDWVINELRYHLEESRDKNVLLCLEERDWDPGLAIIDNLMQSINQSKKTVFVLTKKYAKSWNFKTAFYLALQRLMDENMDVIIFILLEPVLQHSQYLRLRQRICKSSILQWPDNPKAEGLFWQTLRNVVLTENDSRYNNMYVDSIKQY
Source text: as §1, §2, §3, §4

Structure (SMILES) | pEC50 [1] | pEC50 [2]
CCCCc1nc2c(N)nc3cc(CCCN4CCN(C(=O)CCOCCOCCOCCOCCOCCOCCOCCOCCOCCOCCOCCOCCOCCOCCOCCOCCOCCOCCOCCOCCOCCOCCOCCOCCOCCOCCOCCOCCOCCOCCOCCOCCOCCOCCOCCOCCNC(=O)CCOCCOCCOCCOCCNC(=O)O[C@H]5CC[C@@]6(C)C(=CC[C@H]7[C@@H]8CC[C@H]([C@H](C)CCCC(C)C)[C@@]8(C)CC[C@@H]76)C5)CC4)ccc3c2n1CC(C)(CO)CO [Compound 3, (3beta)-cholest-5-en-3-yl {127-[4-(3-{4-amino-2-butyl-1-[3-hydroxy-2-(hydroxymethyl)-2-methylpropyl]-1H-imidazo[4,5-c]quinolin-7-yl}propyl)piperazin-1-yl]-15,127-dioxo-3,6,9,12,19,22,25,28,31,34,37,40,43,46,49,52,55,58,61,64,67,70,73,76,79,82,85,88,91,94,97,100,103,106,109,112,115,118,121,124-tetracontaoxa-16-azaheptacosahect-1-yl}carbamate] | 7.28 | 6.47
CCOCc1nc2c(N)nc3cc(CCCN4CCN(C(=O)CCOCCOCCOCCOCCOCCOCCOCCOCCOCCOCCOCCOCCOCCOCCOCCOCCOCCOCCOCCOCCOCCOCCOCCOCCOCCOCCOCCOCCOCCOCCOCCOCCOCCOCCOCCOCCNC(=O)CCOCCOCCOCCOCCNC(=O)O[C@H]5CC[C@@]6(C)C(=CC[C@H]7[C@@H]8CC[C@H]([C@H](C)CCCC(C)C)[C@@]8(C)CC[C@@H]76)C5)CC4)ccc3c2n1CC(C)(CO)CO [Compound 4, (3beta)-cholest-5-en-3-yl {127-[4-(3-{4-amino-2-(ethoxymethyl)-1-[3-hydroxy-2-(hydroxymethyl)-2-methylpropyl]-1H-imidazo[4,5-c]quinolin-7-yl}propyl)piperazin-1-yl]-15,127-dioxo-3,6,9,12,19,22,25,28,31,34,37,40,43,46,49,52,55,58,61,64,67,70,73,76,79,82,85,88,91,94,97,100,103,106,109,112,115,118,121,124-tetracontaoxa-16-azaheptacosahect-1-yl}carbamate] | 7.22 | 5.76
CCOCc1nc2c(N)nc3cc(CCCN4CCN(C(=O)CCOCCOCCOCCOCCOCCOCCOCCOCCOCCOCCOCCOCCOCCOCCOCCOCCOCCOCCOCCOCCOCCOCCOCCOCCNC(=O)CCOCCOCCOCCOCCNC(=O)O[C@H]5CC[C@@]6(C)C(=CC[C@H]7[C@@H]8CC[C@H]([C@H](C)CCCC(C)C)[C@@]8(C)CC[C@@H]76)C5)CC4)ccc3c2n1CC(C)(CO)CO [Compound 5, (3beta)-cholest-5-en-3-yl {91-[4-(3-{4-amino-2-(ethoxymethyl)-1-[3-hydroxy-2-(hydroxymethyl)-2-methylpropyl]-1H-imidazo[4,5-c]quinolin-7-yl}propyl)piperazin-1-yl]-15,91-dioxo-3,6,9,12,19,22,25,28,31,34,37,40,43,46,49,52,55,58,61,64,67,70,73,76,79,82,85,88-octacosaoxa-16-azahennonacont-1-yl}carbamate] | 7.14 | 5.64
CCCCc1nc2c(N)nc3cc(CCCN4CCN(C(=O)CCOCCOCCOCCOCCOCCOCCOCCOCCOCCOCCOCCOCCNC(=O)CCOCCOCCOCCOCCNC(=O)O[C@H]5CC[C@@]6(C)C(=CC[C@H]7[C@@H]8CC[C@H]([C@H](C)CCCC(C)C)[C@@]8(C)CC[C@@H]76)C5)CC4)ccc3c2n1CC(C)(CO)CO [Compound 6, (3beta,20R)-cholest-5-en-3-yl {55-[4-(3-{4-amino-2-butyl-1-[3-hydroxy-2-(hydroxymethyl)-2-methylpropyl]-1H-imidazo[4,5-c]quinolin-7-yl}propyl)piperazin-1-yl]-15,55-dioxo-3,6,9,12,19,22,25,28,31,34,37,40,43,46,49,52-hexadecaoxa-16-azapentapentacont-1-yl}carbamate] | 7.11 | 5.29
CCCCc1nc2c(N)nc3cc(CCCN4CCN(CCCOCCOCCOCCOCCOCCOCCOCCOCCOCCOCCOCCOCCOCCOCCOCCOCCOCCOCCOCCOCCNC(=O)O[C@H]5CC[C@@]6(C)C(=CC[C@H]7[C@@H]8CC[C@H]([C@H](C)CCCC(C)C)[C@@]8(C)CC[C@@H]76)C5)CC4)ccc3c2n1CC(C)(CO)CO [Compound 7, (3beta)-cholest-5-en-3-yl {63-[4-(3-{4-amino-2-butyl-1-[3-hydroxy-2-(hydroxymethyl)-2-methylpropyl]-1H-imidazo[4,5-c]quinolin-7-yl}propyl)piperazin-1-yl]-3,6,9,12,15,18,21,24,27,30,33,36,39,42,45,48,51,54,57,60-icosaoxatrihexacont-1-yl}carbamate] | 6.85 | 4.84
